# Measured values published in EP3313408B1, “DROSPIRENONE-BASED CONTRACEPTIVE FOR A PATIENT AFFECTED WITH EXCESS WEIGHT” (Laboratorios Leon Farma SA, priority 2015, dated 2016).
# Assay: Trial CF111/302: number of days with bleeding and/or spotting over 9 treatment cycles
# Format: in vivo, women
# Procedure: The study CF111/302 below represents a pivotal, multicentre, double-blind, double-dummy, randomised trial on the contraceptive efficacy, tolerability and safety of LF111 (DRSP) over 9 cycles of 28 days of treatment (24 active test product tablets followed by 4 days of placebo tablets).
# LF111 film-coated tablets (test product; 24 tablets containing 4 mg DRSP followed by 4 placebo tablets; León Farma) was orally administered during this trial. LF111 tablets are of the following formula: […]
# This prospective, multicentre, randomised, double-blind, double-dummy trial was conducted on 857 women without uncontrolled current diseases, at risk of pregnancy, at the age of 18-45 years, systolic blood pressure < 140 mmHg, diastolic blood pressure < 90 mmHg followed in approximately 73 centres in Austria, Czech Republic, Germany, Hungary, Poland, Romania, Slovakia and Spain.
# After providing informed consent at visit 1a (screening; V 1a) and receiving study medication at visit 1b, subjects will attend visits 2 to 4 at day 24±2 of the 1st, 3rd, and 6th cycle, and visit 5 (V5) at day 29+2 of the 9th cycle. The follow-up (visit 6; V6) will take place 7-10 days after last LF1 1 1 intake.
# The planned total duration of the trial was set to be 16 months, with a maximum of 6 months for the enrolment process, a maximum of 9 months for the contraceptive treatment per se and 10 days for the follow-up step. The duration of contraceptive treatment for the individual women is 9 x 28 days. […]
smiles,measurement,setting,value
C#C[C@]1(O)CC[C@H]2[C@@H]3CCC4=CCCC[C@@H]4[C@H]3C(=C)C[C@@]21CC [desogestrel],Bleeding or spotting Mean # days,"Period cycles 2-4, BMI < 30 kg/m^2",16.6 days
same,Bleeding or spotting Mean # days,"Period cycles 2-4, BMI ≥ 30 kg/m^2",21.8 days
same,Bleeding or spotting Mean # days,"Period cycles 2-6, BMI < 30 kg/m^2",24.1 days
same,Bleeding or spotting Mean # days,"Period cycles 2-6, BMI ≥ 30 kg/m^2",16.3 days
same,Bleeding or spotting Mean # days,"Period cycles 2-9, BMI < 30 kg/m^2",34.7 days
same,Bleeding or spotting Mean # days,"Period cycles 2-9, BMI ≥ 30 kg/m^2",33.9 days
